The source made the active and inactive calls.
What was measured:
[1] = target: Beta-lactamase TEM (Escherichia coli) (UniProt P62593); assay: Compound was evaluated for the inhibitory activity against beta-lactamase of Escherichia coli (TEM-1); Inactive
[2] = target: T1, Beta-lactamase 1 (Bacillus cereus) (UniProt P00809); assay: Compound was evaluated for the inhibitory activity against beta-lactamase of Bacillus cereus; Inactive
T1 sequence (whole entry): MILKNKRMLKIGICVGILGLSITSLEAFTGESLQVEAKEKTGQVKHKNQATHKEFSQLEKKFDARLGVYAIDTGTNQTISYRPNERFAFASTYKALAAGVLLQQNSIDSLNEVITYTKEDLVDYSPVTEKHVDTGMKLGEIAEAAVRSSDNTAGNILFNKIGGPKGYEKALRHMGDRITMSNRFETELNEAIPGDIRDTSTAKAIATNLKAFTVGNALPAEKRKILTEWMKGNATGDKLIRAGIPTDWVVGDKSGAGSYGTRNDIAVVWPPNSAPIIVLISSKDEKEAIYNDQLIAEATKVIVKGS

[3] = tested on: Escherichia coli; assay: Compound was evaluated for antibacterial activity against Escherichia coli ESS; Inactive; format: functional, organism-based
[4] = tested on: Staphylococcus aureus; assay: Compound was evaluated for antibacterial activity against Staphylococcus aureus Oxford; Inactive; format: functional, organism-based
[5] = tested on: Streptomyces; assay: Compound was evaluated for the inhibitory activity against D, D-carboxypeptidase of Streptomyces R39; Inactive
[6] = tested on: Haemophilus influenzae; assay: Compound was evaluated for antibacterial activity against Haemophilus influenzae Q1; Inactive; format: functional, organism-based
[7] = tested on: mycobacterium catarrhalis; assay: Compound was evaluated for antibacterial activity against Mycobacterium catarrhalis 1502; Inactive; format: functional
[8] = tested on: Streptococcus pyogenes; assay: Compound was evaluated for antibacterial activity against Streptococcus pyogenes CN10; Inactive; format: functional, organism-based
[9] = target: Beta-lactamase (Enterobacter cloacae) (UniProt P05364); assay: Compound was evaluated for the inhibitory activity against beta-lactamase of Enterobacter cloacae P99; Inactive
Sequence of Beta-lactamase (Enterobacter cloacae) (P05364 21-381 limits assumed): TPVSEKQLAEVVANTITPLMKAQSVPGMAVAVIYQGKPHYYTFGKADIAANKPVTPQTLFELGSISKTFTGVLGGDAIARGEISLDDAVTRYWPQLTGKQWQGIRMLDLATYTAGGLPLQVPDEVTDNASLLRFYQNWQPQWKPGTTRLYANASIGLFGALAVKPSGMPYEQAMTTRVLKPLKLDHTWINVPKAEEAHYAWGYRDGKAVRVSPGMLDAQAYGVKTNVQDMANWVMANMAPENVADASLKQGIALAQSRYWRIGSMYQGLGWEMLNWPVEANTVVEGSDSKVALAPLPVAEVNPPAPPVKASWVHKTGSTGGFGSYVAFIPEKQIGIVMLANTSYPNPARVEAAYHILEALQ

[10] = tested on: Enterococcus faecalis; assay: Compound was evaluated for antibacterial activity against […] I; Inactive; format: functional, organism-based
[11] = tested on: Streptococcus pneumoniae; assay: Compound was evaluated for antibacterial activity against Streptococcus pneumoniae 1761; Inactive; format: functional, organism-based
[12] = tested on: Bacillus subtilis; assay: Compound was evaluated for antibacterial activity against Bacillus subtilis ATCC 6633; Inactive; format: functional, organism-based
[13] = tested on: Streptococcus agalactiae; assay: Compound was evaluated for antibacterial activity against Streptococcus agalactiae Hester; Inactive; format: functional, organism-based
[14] = target: Beta-lactamase (Streptomyces albus G) (UniProt P14559); assay: Compound was evaluated for the inhibitory activity against beta-lactamase of Streptomyces albus G; Inactive
Sequence of Beta-lactamase (Streptomyces albus G) (P14559 whole entry, looked up): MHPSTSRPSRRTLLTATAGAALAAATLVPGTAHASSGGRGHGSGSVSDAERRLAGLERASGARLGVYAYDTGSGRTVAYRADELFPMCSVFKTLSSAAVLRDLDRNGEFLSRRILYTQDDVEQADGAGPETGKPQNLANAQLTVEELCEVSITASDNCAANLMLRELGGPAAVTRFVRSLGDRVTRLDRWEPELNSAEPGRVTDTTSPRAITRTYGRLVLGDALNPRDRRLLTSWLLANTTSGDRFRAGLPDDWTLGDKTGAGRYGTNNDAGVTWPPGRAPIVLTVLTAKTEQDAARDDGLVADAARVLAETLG

[15] = tested on: Pseudomonas aeruginosa; assay: Compound was evaluated for antibacterial activity against Pseudomonas aeruginosa 447B-ES48; Inactive; format: functional, organism-based

Measured: Activity

Sequence of Beta-lactamase TEM (Escherichia coli) (P62593 whole entry): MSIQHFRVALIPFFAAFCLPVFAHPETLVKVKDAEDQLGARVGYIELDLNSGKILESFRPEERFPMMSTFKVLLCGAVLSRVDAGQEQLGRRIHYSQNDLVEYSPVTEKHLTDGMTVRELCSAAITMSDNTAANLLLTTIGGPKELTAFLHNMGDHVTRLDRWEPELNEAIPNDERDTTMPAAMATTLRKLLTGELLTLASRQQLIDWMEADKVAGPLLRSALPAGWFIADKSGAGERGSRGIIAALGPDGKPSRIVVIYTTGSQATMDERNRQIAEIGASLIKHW

O=C(O)CC1=CC(NC(=O)Cc2ccccc2)CC1=O (stereo not given)
inactive: all assays above

CO/N=C(/C(=O)NC1C=C(CC(=O)O)C(=O)C1)c1csc(N)n1 (stereo not given)
inactive: all assays above

NC1C=C(CC(=O)O)C(=O)C1 (stereo not given)
inactive: all assays above

From ChEMBL document CHEMBL1127144, “Cyclopentenones as potential inhibitors of penicillin sensitive enzymes” (Bioorg Med Chem Lett, 1993)
